# Data: PubChem BioAssay AID2060344 (Molecular Pharmacology Branch, DTP, NCI, 2025)
# Values joined by “and” are separate entries in the source; they are usually repeats but may differ in a detail not shown here. Equal values may be shown once.
# System: SK-MEL-2 multi-cell spheroids, viability
# Experiment: Anticancer human tumor SK-MEL-2 cell line growth inhibition [TAK];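 note: spheroids exposed to drugs for seven days before readout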;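 for viability, T/C: percent of DMSO vehicle control luminescence so 100% = untreated viability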
# Settings: for viability, T/C: stronger effect = lower value
# Procedure, shortened: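 Tumor cells were grown as spheroids with HUVEC and hMSC (60:25:15) and treated with targeted agents combined with TAK-243 or ipatasertib. Drugs were tested in half-log steps down from near the clinical Cmax, or from 10 microM where Cmax was unknown.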
# [1] = curve of first compound, second compound 0.3 µM
# [2] = curve of first compound, second compound 0.949 µM
# [3] = curve of first compound, second compound 3 µM
# [4] = curve of first compound, second compound 9.49 µM
# [5] = curve of first compound, second compound 30 µM
# [6] = second compound 0.3 µM, first compound 0.000316 µM
# [7] = second compound 0.3 µM, first compound 0.001 µM
# [8] = second compound 0.3 µM, first compound 0.00316 µM
# [9] = second compound 0.3 µM, first compound 0.01 µM
# [10] = second compound 0.949 µM, first compound 0.000316 µM
# [11] = second compound 0.949 µM, first compound 0.001 µM
# [12] = second compound 0.949 µM, first compound 0.00316 µM
# [13] = second compound 0.949 µM, first compound 0.01 µM
# [14] = second compound 3 µM, first compound 0.000316 µM
# [15] = second compound 3 µM, first compound 0.001 µM
# [16] = second compound 3 µM, first compound 0.00316 µM
# [17] = second compound 3 µM, first compound 0.01 µM
# [18] = second compound 9.49 µM, first compound 0.000316 µM
# [19] = second compound 9.49 µM, first compound 0.001 µM
# [20] = second compound 9.49 µM, first compound 0.00316 µM
# [21] = second compound 9.49 µM, first compound 0.01 µM
# [22] = second compound 30 µM, first compound 0.000316 µM
# [23] = second compound 30 µM, first compound 0.001 µM
# [24] = second compound 30 µM, first compound 0.00316 µM
# [25] = second compound 30 µM, first compound 0.01 µM
structure (smiles),measurement,setting,value
COC1CC2CCC(C)C(O)(O2)C(=O)C(=O)N2CCCCC2C(=O)OC(C(C)CC2CCC(OCCO)C(OC)C2)CC(=O)C(C)C=C(C)C(O)C(OC)C(=O)C(C)CC(C)C=CC=CC=C1C (centres undefined) + CC(C)NCC(C(=O)N1CCN(c2ncnc3c2C(C)CC3O)CC1)c1ccc(Cl)cc1,IC50,[1],4.54 nM
same,IC50,[2],0.725 nM
same,IC50,[3],< 0.316 nM
same,IC50,[4],< 0.316 nM
same,IC50,[5],< 0.316 nM
same,"viability, T/C",[6],72.6%
same,"viability, T/C",[7],60.3%
same,"viability, T/C",[8],48.9%
same,"viability, T/C",[9],49.6%
same,"viability, T/C","second compound 0.3 µM, first compound 0.0316 µM",45.1%
same,"viability, T/C","second compound 0.3 µM, first compound 0.1 µM",42.6%
same,"viability, T/C",[10],58.9%
same,"viability, T/C",[11],47.5%
same,"viability, T/C",[12],39.2%
same,"viability, T/C",[13],38.6%
same,"viability, T/C","second compound 0.949 µM, first compound 0.0316 µM",37.9%
same,"viability, T/C","second compound 0.949 µM, first compound 0.1 µM",36.8%
same,"viability, T/C",[14],45.5%
same,"viability, T/C",[15],37.7%
same,"viability, T/C",[16],27.7%
same,"viability, T/C",[17],27.3%
same,"viability, T/C","second compound 3 µM, first compound 0.0316 µM",30.2%
same,"viability, T/C","second compound 3 µM, first compound 0.1 µM",28%
same,"viability, T/C",[18],36.7%
same,"viability, T/C",[19],30.7%
same,"viability, T/C",[20],23.2%
same,"viability, T/C",[21],23.6%
same,"viability, T/C","second compound 9.49 µM, first compound 0.0316 µM",24%
same,"viability, T/C","second compound 9.49 µM, first compound 0.1 µM",21.6%
same,"viability, T/C",[22],30.3%
same,"viability, T/C",[23],27.6%
same,"viability, T/C",[24],20.4%
same,"viability, T/C",[25],19.1%
same,"viability, T/C","second compound 30 µM, first compound 0.0316 µM",22%
same,"viability, T/C","second compound 30 µM, first compound 0.1 µM",17.9%
COC1CC2CCC(C)C(O)(O2)C(=O)C(=O)N2CCCCC2C(=O)OC(C(C)CC2CCC(OCCO)C(OC)C2)CC(=O)C(C)C=C(C)C(O)C(OC)C(=O)C(C)CC(C)C=CC=CC=C1C (centres undefined),"viability, T/C",compound 0.000316 µM,85% and 118%
same,"viability, T/C",compound 0.001 µM,66.2% and 89%
same,"viability, T/C",compound 0.00316 µM,57.4% and 74.4%
same,"viability, T/C",compound 0.01 µM,55.8% and 73.2%
same,"viability, T/C",compound 0.0316 µM,52.8% and 58.8%
same,"viability, T/C",compound 0.1 µM,47.7% and 69.9%
same,IC50,curve of compound,> 100 nM
CC(C)CC(NC(=O)C(Cc1ccccc1)NC(=O)c1cnccn1)B(O)O (centres undefined),"viability, T/C",compound 31.6 pM,117% and 109%
same,"viability, T/C",compound 0.0001 µM,96.5% and 94.3%
same,"viability, T/C",compound 0.000316 µM,101% and 98.5%
same,"viability, T/C",compound 0.001 µM,113% and 109%
same,"viability, T/C",compound 0.00316 µM,114% and 110%
same,"viability, T/C",compound 0.01 µM,88.5% and 99.6%
same,IC50,curve of compound,> 10 nM
CC(C)CC(NC(=O)C(Cc1ccccc1)NC(=O)c1cnccn1)B(O)O (centres undefined) + CC(C)NCC(C(=O)N1CCN(c2ncnc3c2C(C)CC3O)CC1)c1ccc(Cl)cc1,IC50,[1],> 10 nM
same,IC50,[2],> 10 nM
same,IC50,[3],> 10 nM
same,IC50,[4],4.24 nM
same,IC50,[5],7.76 nM
same,"viability, T/C","second compound 0.3 µM, first compound 31.6 pM",116%
same,"viability, T/C","second compound 0.3 µM, first compound 0.0001 µM",110%
same,"viability, T/C",[6],104%
same,"viability, T/C",[7],117%
same,"viability, T/C",[8],122%
same,"viability, T/C",[9],103%
same,"viability, T/C","second compound 0.949 µM, first compound 31.6 pM",120%
same,"viability, T/C","second compound 0.949 µM, first compound 0.0001 µM",116%
same,"viability, T/C",[10],111%
same,"viability, T/C",[11],119%
same,"viability, T/C",[12],111%
same,"viability, T/C",[13],118%
same,"viability, T/C","second compound 3 µM, first compound 31.6 pM",119%
same,"viability, T/C","second compound 3 µM, first compound 0.0001 µM",117%
same,"viability, T/C",[14],98.7%
same,"viability, T/C",[15],106%
same,"viability, T/C",[16],114%
same,"viability, T/C",[17],114%
same,"viability, T/C","second compound 9.49 µM, first compound 31.6 pM",118%
same,"viability, T/C","second compound 9.49 µM, first compound 0.0001 µM",119%
same,"viability, T/C",[18],113%
same,"viability, T/C",[19],109%
same,"viability, T/C",[20],62.5%
same,"viability, T/C",[21],13.1%
same,"viability, T/C","second compound 30 µM, first compound 31.6 pM",115%
same,"viability, T/C","second compound 30 µM, first compound 0.0001 µM",123%
same,"viability, T/C",[22],111%
same,"viability, T/C",[23],114%
same,"viability, T/C",[24],119%
same,"viability, T/C",[25],31.2%
